US11649228B2, “Zinc indicators for cellular imaging” (The Board of Regents of the University of Texas System, priority 2018, dated 2023)

Experiments:
[1] = Metal ion selectivity of fluorescence response; type: physicochemical; conditions: 1 μM sensor, 10 μM TPEN; against Na^+, K^+, Ca^2+, Mg^2+, Fe^2+, Ni^2+, Co^2+, Cu^2+, Mn^2+
Method: To study the metal selectivity, the fluorescence of ZIGIR-1 (1 μM) or ZIGIR-2 (1 μM) was measured in the presence of 10 μM TPEN and an excess of metal ion including 1 mM KCl, 1 mM NaCl, 1 mM CaSO4, 1 mM MgSO4, 15 μM MnSO4, 15 μM FeSO4, 15 μM NiSO4, 15 μM CoCl2, 15 μM CuSO4, 15 μM CdSO4 or 15 μM ZnSO4. The emission intensity was normalized to that of 15 μM ZnSO4 (100%).

[2] = test system: primary mouse islet cells; assay: Flow cytometry analysis and FACS of mouse islet cells labeled with ZIGIR-2 and Ex4-Cy5; type: cell-based
Excerpt: Among islet endocrine cells, β-cells have long been known to contain a high level of total Zn^2+ in their secretory granules. However, it remains unclear how Zn^2+ activities differ among different types of secretory granules including the glucagon granule and the somatostatin granule. To address the question, the inventors combined ZIGIR-2 and flow cytometry to analyze the granular Zn^2+ activity in primary mouse islet cells. To facilitate distinguishing different endocrine cells, they labeled mouse islets with a β-cell marker, a Cy5 dye conjugate of Exendin-4 peptide (Ex4) (Scheme 3). Ex4 is a high affinity ligand of the glucagon like peptide 1 receptor (GLP-1R). Since GLP-1R is highly expressed in mouse islet β-cells,^46 fluorescently labeled conjugates of Ex4 are rapidly internalized into β-cells through receptor-mediated endocytosis to mark β-cells.^36, 47 After labeling mouse islets with Ex4-Cy5, the inventors dispersed the islets into single cells and labeled them with ZIGIR-2 (FIG. 10A). […] To identify each subset of cells, the inventors isolated them by FACS and analyzed the sorted cells by immunofluorescence using antibodies against insulin, glucagon, and somatostatin. The immunofluorescence result confirmed that P1 and P2 subsets were essentially pure β-cells (99±0.3%, N=3) and α-cells (98±0.5%, N=3), respectively (FIG. 10C). […] The remaining ˜20% of cells in P3 and most cells in P4 were not stained by any of the three hormone antibodies. These cells likely represented rare […], islet endothelial cells or lymphoid cells, and residual exocrine cells.
Mouse islets were isolated as previously described (Li et al., 2011) by perfusing Collagenase P (Roche, 1.4 mg/mL in HBSS with 5 mM glucose) through the common bile duct. Following a 15 min digestion at 37° C., the pancreas digestion was washed twice with HBSS by centrifugation and the islets were hand-picked under a dissection scope. Isolated islets were cultured 2-4 hours in RPMI-1640 medium (GIBCO, #11875-093) supplemented with 10% (v/v) FBS, 2.0 mM sodium-pyruvate, 100 U/mL penicillin and […] at 37° C. in 5% CO2. To distinguish islet β-cells from non-β cells, islets were labeled with a fluorescently labeled exendin-4 derivative as previously described (Kim et al., 2017). Briefly, Ex4-Cy5 (100 nM) was added to the culture medium 2 hours before islet dispersion. ZIGIR labeling was carried out subsequently after islet dispersion. Mouse islets were dispersed with 0.05% Trypsin solution in DPBS at 37° C. for 15 min. The dispersed islet cells were incubated with 0.5 μM ZIGIR-1 (or ZIGIR-2) at 37° C. for 15 min in the cell sorting buffer (SAB Buffer containing 3 mM glucose, 0.5% BSA and 0.1 mg/mL DNase I (Roche)). The cells were then washed twice with ice-cold SAB and resuspended in the cell sorting buffer. The labeled cells were analyzed by flow cytometry on a LSRFortessa cell analyzer (BD Biosciences). DAPI (200 ng/mL) was added to the cell suspension prior to flow cytometry to distinguish live cells (DAPI negative) from dead cells (DAPI positive). Only live cells were analyzed.

[3] = test system: T47D human breast cancer cells, H1299 lung carcinoma and HEK293 human embryonic kidney cells; assay: ZIGIR-2 imaging in cells not known to contain Zn^2+ rich secretory granules; type: cell-based
Method: To better understand the granular labeling specificity of ZIGIR-2, a number of mammalian cells were imaged that are not known to contain Zn^2+ rich secretory granules. These included T47D human breast cancer cells, H1299 lung carcinoma and HEK293 human embryonic kidney cells. […] However, after adding Zn/pyrithione, distinct ZIGIR-2 positive spots emerged in these cells (FIG. 8B). Subsequently, LysoTracker Green (LTG), an acidotropic fluorescent tracer based on BODIPY dye, was added to label acidic granules.
MIN-6 β cells were cultured as previously described (Li et al., 2011). HEK293 cells were cultured in DMEM medium supplemented with 10% FBS and 1% Penicillin/Streptomycin. T47D cells were cultured in RPMI-1640 medium supplemented with 10% FBS, 0.5% non-essential amino acids, 1 mM sodium pyruvate, 10 μg/mL geneticin and 0.01 mg/mL insulin. H1299 cells were cultured in RPMI-1640 medium supplemented with 10% FBS. All cells were maintained at 37° C. with 5% CO2. For cell imaging, cells were seeded in 35-mm petri dishes with glass bottoms (MatTek) and cultured for ˜24 hours to reach ˜50% confluence. Prior to labeling, cells were washed with a secretion assay buffer (SAB) containing 114 mM NaCl, 4.7 mM KCl, 1.2 mM KH2PO4, 2.5 mM CaCl2, 1.16 mM MgSO4, 3 mM glucose, and 20 mM Hepes (pH 7.4). […] ZIGIR colocalization with LysoTracker Green was analyzed and quantified with JACoP plugin of ImageJ.

[4] = ZIGIR-2 and Ex4-Cy5 labeling, N=3

CN(C)c1ccc2c(-c3ccc(NCCN(CCc4ccccn4)Cc4ccccn4)cc3C(=O)[O-])c3ccc(=[N+](C)C)cc-3oc2c1 [ZIGIR-2]
selectivity of fluorescence response for Zn^2+ [1]: selective for Zn^2+ | median fluorescence intensity (MFI) in α-cells versus δ-cells [2]: nearly an order of magnitude stronger | median fluorescence intensity (MFI) in α-cells, weaker than in β-cells [2]: about 5 times | α-cells in sorted P2 subset [2, 4]: 98±0.5% | β-cells in sorted P1 subset [2, 4]: 99±0.3% | δ-cells in sorted P3 subset [2, 4]: 81±4.8% | ability to resolve islet cells into subsets by granular Zn^2+ activity ([2]; compared with commercially available Zn^2+ sensors): able to resolve islet cells into distinct subsets | overlap of ZIGIR-2 positive puncta with LysoTracker Green marked granules ([3]; after Zn/pyrithione): overlapped remarkably well | fluorescence signal in basal SAB buffer ([3]; same dye loading and imaging conditions as MIN6 cells): barely any ZIGIR-2 fluorescence signal was detected
